Test results: article PMC6838069, “Biochemical characterization and chemical validation of Leishmania MAP Kinase-3 as a potential drug target” (Scientific Reports, 2019)

Biological target: T1, LdMAPK3 (Leishmania donovani, UniProt A0A3S7WR45)
T1 construct: gene LdCL_100012100; pET-28a BamHI/HindIII, His6-tagged (~48 kDa on gel, tag not reported cut), E. coli BL21(DE3), Ni-NTA
T1 sequence (A0A3S7WR45 1-388): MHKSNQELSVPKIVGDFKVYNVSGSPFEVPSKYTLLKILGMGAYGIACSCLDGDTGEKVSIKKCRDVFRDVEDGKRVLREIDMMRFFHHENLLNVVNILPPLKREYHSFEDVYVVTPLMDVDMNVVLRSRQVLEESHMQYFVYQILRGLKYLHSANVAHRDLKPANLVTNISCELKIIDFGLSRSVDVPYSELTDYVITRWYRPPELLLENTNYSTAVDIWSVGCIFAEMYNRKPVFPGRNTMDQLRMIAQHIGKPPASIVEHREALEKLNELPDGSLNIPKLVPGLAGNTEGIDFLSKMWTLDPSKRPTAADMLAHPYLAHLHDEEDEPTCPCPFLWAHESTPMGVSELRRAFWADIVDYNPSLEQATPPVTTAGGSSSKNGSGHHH
Assay: Kinase-Glo Plus luminescent ATP depletion; Dixon plot
Type: biochemical

Compound	Ki
O=c1cc(-c2ccccc2)oc2cc(O)cc(O)c12 [CHY, 5,7-dihydroxyflavone]	8.75 ± 0.11 µM
O=c1c(-c2ccc(O)cc2)coc2cc(O)cc(O)c12 [GEN, genistein]	3.76 ± 0.28 µM
